Measurements as given in patent publication US8450320B2, “Pyrrolopyrazinone inhibitors of kinases” (AbbVie Inc., priority 2010, dated 2013).

Target: T1, Cdc7 (BEV coexpressed huCDC7/DBF4) (Homo sapiens, UniProt O00311)
T1 construct: made in house; host or cells: BEV (baculovirus expression vector)
Assay: Cdc7 enzyme inhibition assay ([33P]-ATP, biotinylated peptide substrate, FlashPlate)
Format: biochemical
Conditions: Ki generated from IC50 assuming ATP-competitive inhibition; 1 μM ATP, apparent ATP Km 0.7 μM
Experimental: This example describes the assays that may be used to identify compounds having kinase activity.
Cdc7 (BEV coexpressed huCDC7/DBF4) is prepared internally. Cdc7 assays are conducted as follows with final concentrations as listed. In 384-well v-bottom polypropylene plates, 6 μL compound (2% DMSO), is mixed with 6 μL of Cdc7 (2 ug/mL), and Jerini peptide substrate A-All (biotin-C6linker-TPSDSLIYDDGLS) (2 μM), followed by immediate initiation with 6 μL […] (1 μM, 20 mCi/μmol) using a reaction buffer comprising 25 mM HEPES, pH 7.5, 1 mM DTT, 10 mM MgCl2, 100 μM Na3VO4, 0.075 mg/ml Triton X-100. Reactions are quenched after 1 hr by the addition of 90 μL stop buffer (50 mM EDTA, 2M NaCl). 85 μL of the stopped reactions are transferred to 384-well streptavidin-coated plates (FlashPlate Plus, Perkin Elmer), incubated 30 minutes at room temperature and washed 3 times with 0.05% Tween-20/PBS using an ELX-405 automated plate washer (BioTek), and counted on a TopCount Scintillation Plate Reader (Packard). IC50 values are determined via non-linear regression fitting of enzyme inhibition data and corresponding Ki values are generated assuming ATP-competitive (equilibrium) inhibition and using the experimentally determined apparent ATP Km of 0.7 μM (as determined using the above assay condition, but varying ATP).
Table 1 depicts enzyme inhibition data (Ki) for exemplary compounds. In Table 1, “A” represents a Ki of less than 10 nM, “B” represents a Ki of between 10 nM and 100 nM, and “C” represents a Ki of greater than 100 nM.

T1 sequence (O00311 whole entry): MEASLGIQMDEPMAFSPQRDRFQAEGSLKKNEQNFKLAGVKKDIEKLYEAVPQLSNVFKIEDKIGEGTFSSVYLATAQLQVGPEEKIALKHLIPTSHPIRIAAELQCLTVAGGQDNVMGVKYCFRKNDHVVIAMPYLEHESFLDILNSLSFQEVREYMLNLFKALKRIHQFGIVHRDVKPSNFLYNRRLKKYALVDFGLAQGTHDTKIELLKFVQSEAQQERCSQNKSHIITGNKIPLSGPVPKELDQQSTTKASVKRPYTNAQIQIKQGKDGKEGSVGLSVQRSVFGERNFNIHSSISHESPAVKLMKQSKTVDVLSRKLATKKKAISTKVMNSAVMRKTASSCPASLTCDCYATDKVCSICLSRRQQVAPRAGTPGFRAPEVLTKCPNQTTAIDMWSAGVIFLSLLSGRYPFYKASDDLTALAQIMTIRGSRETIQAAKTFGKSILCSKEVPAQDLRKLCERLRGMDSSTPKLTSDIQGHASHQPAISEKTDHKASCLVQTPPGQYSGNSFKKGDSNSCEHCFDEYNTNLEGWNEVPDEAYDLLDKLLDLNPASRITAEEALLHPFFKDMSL
T1 sequence (Q9UBU7 whole entry partner): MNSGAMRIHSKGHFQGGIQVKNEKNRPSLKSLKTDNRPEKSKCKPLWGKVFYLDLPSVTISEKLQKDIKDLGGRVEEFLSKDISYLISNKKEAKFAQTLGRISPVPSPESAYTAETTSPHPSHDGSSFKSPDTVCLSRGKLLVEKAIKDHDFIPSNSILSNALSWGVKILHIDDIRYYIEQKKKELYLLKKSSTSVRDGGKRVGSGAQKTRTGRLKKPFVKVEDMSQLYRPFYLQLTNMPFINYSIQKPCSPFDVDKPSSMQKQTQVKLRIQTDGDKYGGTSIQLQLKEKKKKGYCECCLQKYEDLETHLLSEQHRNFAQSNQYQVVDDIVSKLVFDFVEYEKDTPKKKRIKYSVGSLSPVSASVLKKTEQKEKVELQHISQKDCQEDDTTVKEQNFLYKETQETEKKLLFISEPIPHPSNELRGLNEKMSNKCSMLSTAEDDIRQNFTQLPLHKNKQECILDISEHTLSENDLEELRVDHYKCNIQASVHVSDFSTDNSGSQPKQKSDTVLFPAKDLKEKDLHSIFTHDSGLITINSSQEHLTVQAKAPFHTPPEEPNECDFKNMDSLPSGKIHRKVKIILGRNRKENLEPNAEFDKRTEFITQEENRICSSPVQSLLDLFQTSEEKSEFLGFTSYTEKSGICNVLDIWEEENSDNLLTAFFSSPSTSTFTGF

Row | Structure (SMILES) | Ki [µM]
1 | N#Cc1cc(Cc2c[nH]c(=O)c3cc(-c4ccncc4)cn23)ccc1F [Example 1, 2-fluoro-5-{[1-oxo-7-(pyridin-4-yl)-1,2-dihydropyrrolo[1,2-a]pyrazin-4-yl]methyl}benzonitrile] | < 0.01
2 | N#Cc1cc(Cc2c[nH]c(=O)c3cc(-c4c[nH]c5ncccc45)cn23)ccc1F [Example 2, 2-fluoro-5-{[1-oxo-7-(1H-pyrrolo[2,3-b]pyridin-3-yl)-1,2-dihydropyrrolo[1,2-a]pyrazin-4-yl]methyl}benzonitrile] | < 0.01
3 | O=C(O)c1cc(Cc2c[nH]c(=O)c3cc(-c4c[nH]c5ncccc45)cn23)ccc1F [Example 3, 2-fluoro-5-{[1-oxo-7-(1H-pyrrolo[2,3-b]pyridin-3-yl)-1,2-dihydropyrrolo[1,2-a]pyrazin-4-yl]methyl}benzoic acid] | < 0.01
4 | CCOC(=O)c1cccc(Cc2c[nH]c(=O)c3cc(-c4ccncc4)cn23)c1 [Example 4, ethyl 3-{[1-oxo-7-(pyridin-4-yl)-1,2-dihydropyrrolo[1,2-a]pyrazin-4-yl]methyl}benzoate] | 0.01 to 0.1
5 | O=C(O)c1cccc(Cc2c[nH]c(=O)c3cc(-c4c[nH]c5ncccc45)cn23)c1 [Example 5, 3-{[1-oxo-7-(1H-pyrrolo[2,3-b]pyridin-3-yl)-1,2-dihydropyrrolo[1,2-a]pyrazin-4-yl]methyl}benzoic acid] | < 0.01
6 | CCOC(=O)c1cccc(Cc2c[nH]c(=O)c3cc(-c4c[nH]c5ncccc45)cn23)c1 [Example 6, ethyl 3-{[1-oxo-7-(1H-pyrrolo[2,3-b]pyridin-3-yl)-1,2-dihydropyrrolo[1,2-a]pyrazin-4-yl]methyl}benzoate] | < 0.01
7 | O=C(O)c1cccc(Cc2c[nH]c(=O)c3cc(-c4ccncc4)cn23)c1 [Example 7, 3-{[1-oxo-7-(pyridin-4-yl)-1,2-dihydropyrrolo[1,2-a]pyrazin-4-yl]methyl}benzoic acid] | 0.01 to 0.1
8 | CCOC(=O)c1cccc(Cc2c[nH]c(=O)c3cc(-c4cccnc4)cn23)c1 [Example 8, ethyl 3-{[1-oxo-7-(pyridin-3-yl)-1,2-dihydropyrrolo[1,2-a]pyrazin-4-yl]methyl}benzoate] | > 0.1
9 | CCOC(=O)c1cccc(Cc2c[nH]c(=O)c3cc(-c4cn[nH]c4)cn23)c1 [Example 9, ethyl 3-{[1-oxo-7-(1H-pyrazol-4-yl)-1,2-dihydropyrrolo[1,2-a]pyrazin-4-yl]methyl}benzoate] | < 0.01
10 | NC(=O)c1cccc(Cc2c[nH]c(=O)c3cc(-c4c[nH]c5ncccc45)cn23)c1 [Example 10, 3-{[1-oxo-7-(1H-pyrrolo[2,3-b]pyridin-3-yl)-1,2-dihydropyrrolo[1,2-a]pyrazin-4-yl]methyl}benzamide] | < 0.01
11 | O=C(O)c1cccc(Cc2c[nH]c(=O)c3cc(-c4c[nH]c5nccnc45)cn23)c1 [Example 11, 3-{[1-oxo-7-(5H-pyrrolo[2,3-b]pyrazin-7-yl)-1,2-dihydropyrrolo[1,2-a]pyrazin-4-yl]methyl}benzoic acid] | < 0.01
12 | CCOC(=O)c1cccc(Cc2c[nH]c(=O)c3cc(-c4c[nH]c5nccnc45)cn23)c1 [Example 12, ethyl 3-{[1-oxo-7-(5H-pyrrolo[2,3-b]pyrazin-7-yl)-1,2-dihydropyrrolo[1,2-a]pyrazin-4-yl]methyl}benzoate] | < 0.01
13 | NC(=O)c1cccc(Cc2c[nH]c(=O)c3cc(-c4cn[nH]c4)cn23)c1 [Example 13, 3-{[1-oxo-7-(1H-pyrazol-4-yl)-1,2-dihydropyrrolo[1,2-a]pyrazin-4-yl]methyl}benzamide] | < 0.01
14 | O=c1[nH]cc(Cc2cccc([N+](=O)[O-])c2)n2cc(-c3c[nH]c4ncccc34)cc12 [Example 14, 4-(3-nitrobenzyl)-7-(1H-pyrrolo[2,3-b]pyridin-3-yl)pyrrolo[1,2-a]pyrazin-1(2H)-one] | < 0.01
15 | O=C(c1ccc([N+](=O)[O-])cc1)c1c[nH]c(=O)c2cc(-c3c[nH]c4ncccc34)cn12 [Example 15, 4-(4-nitrobenzoyl)-7-(1H-pyrrolo[2,3-b]pyridin-3-yl)pyrrolo[1,2-a]pyrazin-1(2H)-one] | < 0.01
16 | N#Cc1ccc(Cc2c[nH]c(=O)c3cc(-c4c[nH]c5ncccc45)cn23)cc1 [Example 16, 4-{[1-oxo-7-(1H-pyrrolo[2,3-b]pyridin-3-yl)-1,2-dihydropyrrolo[1,2-a]pyrazin-4-yl]methyl}benzonitrile] | < 0.01

Row | Structure (SMILES) | Ki [µM]
17 | O=C(Nc1ccc(Cc2c[nH]c(=O)c3cc(-c4c[nH]c5ncccc45)cn23)cc1)c1ccncc1 [Example 17, N-(4-{[1-oxo-7-(1H-pyrrolo[2,3-b]pyridin-3-yl)-1,2-dihydropyrrolo[1,2-a]pyrazin-4-yl]methyl}phenyl)isonicotinamide] | < 0.01
18 | O=C(Nc1ccc(Cc2c[nH]c(=O)c3cc(-c4c[nH]c5ncccc45)cn23)cc1)C1CCC1 [Example 18, N-(4-{[1-oxo-7-(1H-pyrrolo[2,3-b]pyridin-3-yl)-1,2-dihydropyrrolo[1,2-a]pyrazin-4-yl]methyl}phenyl)cyclobutanecarboxamide] | < 0.01
19 | CN(c1cccc(Cc2c[nH]c(=O)c3cc(-c4c[nH]c5ncccc45)cn23)c1)C1CCC1 [Example 19, 4-{3-[cyclobutyl(methyl)amino]benzyl}-7-(1H-pyrrolo[2,3-b]pyridin-3-yl)pyrrolo[1,2-a]pyrazin-1(2H)-one] | 0.01 to 0.1
20 | O=C(Nc1ccc(Cc2c[nH]c(=O)c3cc(-c4c[nH]c5ncccc45)cn23)cc1)C1CC1 [Example 20, N-(4-{[1-oxo-7-(1H-pyrrolo[2,3-b]pyridin-3-yl)-1,2-dihydropyrrolo[1,2-a]pyrazin-4-yl]methyl}phenyl)cyclopropanecarboxamide] | < 0.01
21 | CS(=O)(=O)Nc1cccc(Cc2c[nH]c(=O)c3cc(-c4c[nH]c5ncccc45)cn23)c1 [Example 21, N-(3-{[1-oxo-7-(1H-pyrrolo[2,3-b]pyridin-3-yl)-1,2-dihydropyrrolo[1,2-a]pyrazin-4-yl]methyl}phenyl)methanesulfonamide] | < 0.01
22 | Nc1cccc(Cc2c[nH]c(=O)c3cc(-c4c[nH]c5ncccc45)cn23)c1 [Example 22, 4-(3-aminobenzyl)-7-(1H-pyrrolo[2,3-b]pyridin-3-yl)pyrrolo[1,2-a]pyrazin-1(2H)-one] | < 0.01
23 | Nc1ccc(Cc2c[nH]c(=O)c3cc(-c4c[nH]c5ncccc45)cn23)cc1 [Example 23, 4-(4-aminobenzyl)-7-(1H-pyrrolo[2,3-b]pyridin-3-yl)pyrrolo[1,2-a]pyrazin-1(2H)-one] | < 0.01
24 | O=c1[nH]cc(Cc2ccc(NCc3ccccn3)cc2)n2cc(-c3c[nH]c4ncccc34)cc12 [Example 24, 4-{4-[(pyridin-2-ylmethyl)amino]benzyl}-7-(1H-pyrrolo[2,3-b]pyridin-3-yl)pyrrolo[1,2-a]pyrazin-1(2H)-one] | < 0.01
25 | O=c1[nH]cc(Cc2ccc(CNC3CCC3)cc2)n2cc(-c3c[nH]c4ncccc34)cc12 [Example 25, 4-{4-[(cyclobutylamino)methyl]benzyl}-7-(1H-pyrrolo[2,3-b]pyridin-3-yl)pyrrolo[1,2-a]pyrazin-1(2H)-one] | < 0.01
26 | O=C(Nc1ccc(Cc2c[nH]c(=O)c3cc(-c4c[nH]c5ncccc45)cn23)cc1)c1ccco1 [Example 26, N-(4-{[1-oxo-7-(1H-pyrrolo[2,3-b]pyridin-3-yl)-1,2-dihydropyrrolo[1,2-a]pyrazin-4-yl]methyl}phenyl)-2-furamide] | < 0.01
27 | O=c1[nH]cc(Cc2cccc(N(C3CCC3)C3CCC3)c2)n2cc(-c3c[nH]c4ncccc34)cc12 [Example 27, 4-[3-(dicyclobutylamino)benzyl]-7-(1H-pyrrolo[2,3-b]pyridin-3-yl)pyrrolo[1,2-a]pyrazin-1(2H)-one] | 0.01 to 0.1
28 | O=C(Nc1ccc(Cc2c[nH]c(=O)c3cc(-c4c[nH]c5ncccc45)cn23)cc1)c1cccnc1 [Example 28, N-(4-{[1-oxo-7-(1H-pyrrolo[2,3-b]pyridin-3-yl)-1,2-dihydropyrrolo[1,2-a]pyrazin-4-yl]methyl}phenyl)nicotinamide] | < 0.01
29 | O=c1[nH]cc(Cc2ccc(CNS(=O)(=O)C3CC3)cc2)n2cc(-c3c[nH]c4ncccc34)cc12 [Example 29, N-(4-{[1-oxo-7-(1H-pyrrolo[2,3-b]pyridin-3-yl)-1,2-dihydropyrrolo[1,2-a]pyrazin-4-yl]methyl}benzyl)cyclopropanesulfonamide] | < 0.01
30 | O=c1[nH]cc(Cc2ccc(CN(C3CCC3)C3CCC3)cc2)n2cc(-c3c[nH]c4ncccc34)cc12 [Example 30, 4-{4-[(dicyclobutylamino)methyl]benzyl}-7-(1H-pyrrolo[2,3-b]pyridin-3-yl)pyrrolo[1,2-a]pyrazin-1(2H)-one] | 0.01 to 0.1
31 | CS(=O)(=O)NCc1ccc(Cc2c[nH]c(=O)c3cc(-c4c[nH]c5ncccc45)cn23)cc1 [Example 31, N-(4-{[1-oxo-7-(1H-pyrrolo[2,3-b]pyridin-3-yl)-1,2-dihydropyrrolo[1,2-a]pyrazin-4-yl]methyl}benzyl)methanesulfonamide] | < 0.01
